Here are results for one molecule from ChEMBL document CHEMBL5505975, “Design, synthesis and biological evaluation of CDC20 inhibitors for treatment of triple-negative breast cancer” (Eur J Med Chem, 2024).

Calls of active or inactive are those of the source. The rule behind the calls is not given here.

For data set [1], the system named is MDA-MB-231. In words: Cell cycle arrest in human MDA-MB-231 cells assessed as G1 phase cells at 20 uM incubated for 72 hrs by PI staining based flow cytometric analysis (reference value: 56.7%). It counts as functional.
Data set [2] concerns MDA-MB-231. In words: Cell cycle arrest in human MDA-MB-231 cells assessed as G2 phase cells at 20 uM incubated for 72 hrs by PI staining based flow cytometric analysis (reference value: 14.6%). It counts as functional.
Data set [3] relates to MDA-MB-231. The data set can be described thus: Cell cycle arrest in human MDA-MB-231 cells assessed as G2 phase cells at 5 uM incubated for 48 hrs by PI staining based flow cytometric analysis (reference value: 7.3%). It counts as functional.
The test system of data set [4] is MDA-MB-231. In words: Cell cycle arrest in human MDA-MB-231 cells assessed as G2 phase cells at 10 uM incubated for 48 hrs by PI staining based flow cytometric analysis (reference value: 7.3%). It is filed as functional.
Data set [5] concerns MDA-MB-231. The data set can be described thus: Induction of autophagy in human MDA-MB-231 cells assessed as increase in beclin-1 expression level incubated for 48 hrs by Western blot analysis. It counts as functional, cell-based. The conditions noted are these: dose 5-20 µM.
In data set [6] the test system is MDA-MB-231. In words: Induction of autophagy in human MDA-MB-231 cells assessed as increase in LC3BII expression level incubated for 48 hrs by Western blot analysis. It counts as functional, cell-based.
The test system of data set [7] is MDA-MB-231. The data set can be described thus: Induction of apoptosis in human MDA-MB-231 cells assessed as viable cells at 2.5 uM incubated for 48 hrs by Annexin V-FITC/PI staining based flow cytometric analysis (reference value: 95.10%). It counts as functional. The conditions noted are these: read-out: Activity.
The test system of data set [8] is MDA-MB-231. The data set can be described thus: Induction of apoptosis in human MDA-MB-231 cells assessed as late apoptotic cells at 5 uM incubated for 48 hrs by Annexin V-FITC/PI staining based flow cytometric analysis (reference value: 1.06%). It is filed as functional.
Data set [9] relates to MDA-MB-231. In words: Induction of apoptosis in human MDA-MB-231 cells assessed as late apoptotic cells at 20 uM incubated for 48 hrs by Annexin V-FITC/PI staining based flow cytometric analysis (reference value: 1.06%). It is filed as functional.
In data set [10] the test system is 4T1. The data set can be described thus: Antitumor activity against mouse 4T1 cells implanted in female BALB/C mouse assessed as inhibition of tumor weight at 20 mg/kg, iv administered every two days for 21 days relative to control. It is filed as functional, organism-based. The conditions noted are these: time 21.0 day.
Data set [11] is described as follows: Toxicity in female BALB/C mouse implanted with mouse 4T1 cells assessed as heart damage at 20 to 50 mg/kg, iv administered every two days for 21 days by H and E staining based analysis. It counts as organism-based. To be noted: in vivo, 504 h, dose 20-50 mg/kg, time 21 day.
The nature of data set [12]: Toxicity in female BALB/C mouse implanted with mouse 4T1 cells assessed as lung damage at 20 to 50 mg/kg, iv administered every two days for 21 days by H and E staining based analysis. It counts as organism-based. To be noted: in vivo, 504 h, dose 20-50 mg/kg, time 21 day.
Data set [13] is described as follows: Toxicity in female BALB/C mouse implanted with mouse 4T1 cells assessed as kidney damage at 20 to 50 mg/kg, iv administered every two days for 21 days by H and E staining based analysis. It is filed as organism-based. To be noted: in vivo, 504 h, dose 20-50 mg/kg, time 21 day.
Data set [14] is described as follows: Toxicity in female BALB/C mouse implanted with mouse 4T1 cells assessed as change in serum CK level at 20 to 50 mg/kg, po administered every two days for 21 days. It counts as organism-based. The conditions noted are these: in vivo, 504 h, dose 20-50 mg/kg, time 21 day.
A short description of data set [15]: Toxicity in female BALB/C mouse implanted with mouse 4T1 cells assessed as change in serum CREA level at 20 to 50 mg/kg, iv administered every two days for 21 days. It is filed as organism-based. The conditions noted are these: in vivo, 504 h, dose 20-50 mg/kg, time 21 day.
Data set [16] can be described thus: Toxicity in female BALB/C mouse implanted with mouse 4T1 cells assessed as change in serum CK level at 20 to 50 mg/kg, iv administered every two days for 21 days. It is filed as organism-based. The conditions noted are these: in vivo, 504 h, dose 20-50 mg/kg, time 21 day.
A short description of data set [17]: Toxicity in female BALB/C mouse implanted with mouse 4T1 cells assessed as effect on neutrophils at 20 to 50 mg/kg, po administered every two days for 21 days by routine blood analysis. It is filed as organism-based. To be noted: in vivo, 504 h, dose 20-50 mg/kg, time 21 day.
Data set [18] in a line: Toxicity in female BALB/C mouse implanted with mouse 4T1 cells assessed as change in number of platelets at 20 to 50 mg/kg, iv administered every two days for 21 days by routine blood analysis. It is filed as organism-based. The conditions noted are these: in vivo, 504 h, dose 20-50 mg/kg, time 21 day.
The nature of data set [19]: Toxicity in female BALB/C mouse implanted with mouse 4T1 cells assessed as change in RBC level at 20 to 50 mg/kg, iv administered every two days for 21 days by routine blood analysis. To be noted: in vivo, 504 h, dose 20-50 mg/kg, time 21 day. It counts as organism-based.
Data set [20] can be described thus: Toxicity in female BALB/C mouse implanted with mouse 4T1 cells assessed as effect on monocytes at 20 to 50 mg/kg, iv administered every two days for 21 days by routine blood analysis. It counts as organism-based. The conditions noted are these: in vivo, 504 h, dose 20-50 mg/kg, time 21 day.

Consider `CCC(=O)NC(n1cnc2c(Nc3cc(OC)c(OC)c(OC)c3)nc(N)nc21)C(Cl)(Cl)Cl` (stereo not given), for which the Activity was 36.4% in data set [1]; 51.1% in data set [2]; 8.6% in data set [3]; 10.6% in [4]; “Dose-Dependent Effect” in data set [5]; “Dose-Dependent Effect” in data set [6]. The Activity in [8] was 1.87%; in data set [9], 1.96%; in data set [11] it was “Non-Toxic”; in data set [12], “Non-Toxic”; in [13], “Non-Toxic”; in data set [14], “Non-Toxic”. Further, the Activity entry in data set [15], in [16], in [17], in data set [18], in data set [19] and in data set [20] was “Non-Toxic” each time. The viability at 2.5 µM in [7] is 95.7%. Besides, in data set [10], the outcome was inactive.
